Numbers after ± are expanded uncertainties.
How the values were obtained:
[1] = 293.15 K; 101.33 kPa; Liquid; Vibrating tube method
[2] = refractive index (Na D-line) (dimensionless); conditions: 293.15 K; 101.33 kPa; Liquid; Standard Abbe refractometry

| mass density [1] [kg/m3] | refractive index [2] | Compound |
| --- | --- | --- |
| 990.1 ± 8.2 | 1.4452 ± 0.0012 | CCCCOC(=O)/C=C\C(=O)OCCCC [dibutyl cis-butendioate] |
| 988 ± 8 | 1.3809 ± 0.0011 | CCC(=O)O [propanoic acid] |

The remaining lines, values behind:

| Compound | mass density [1] [kg/m3] | refractive index [2] |
| --- | --- | --- |
| CCCCCCC(C)=O [2-octanone] | 819.9 ± 8 | 1.4151 ± 0.0011 |
| C1CCCC1 [cyclopentane] | 745.7 ± 8 | 1.4066 ± 0.0011 |
| OC1CCCC1 [cyclopentanol] | 948.7 ± 8 | 1.4531 ± 0.0011 |
